Test results as given in patent US20150010502A1, “Compositions and Methods for Suppressing Gene Expression of p53 and Clusterin” (priority 2011, published 2015).
e = 2'-O-(2-methoxyethyl) (MOE); d = 2'-deoxy (DNA)

How the values were obtained:
[1] = tested on: U2OS cells (osteosarcoma); assay: U2OS cells treated with PMO, cisplatin followed by Go6976 (FIG. 5); assay type: cell-based; conditions: PMO 3 uM 2 h; for enhancement of sensitivity to cisplatin: Cis 5 uM 24 h
Protocol: FIG. 5 is a graph showing the results obtained with U2OS cells treated with PMO (3 uM, 2 h), Cis (5 uM, 24 h) followed by Go6976 (100 nM, 24 h).
(§1) In further studies, additional agents were tested in conjunction with p53 morpholinos. […] We also tested these agents on U2OS cells (osteosarcoma). Again a dramatic effect on cell cycle that is dependent on PMOs and Go is observed. PMOs give a 3-fold enhancement of drug sensitivity in the caspase 3 assay. We also assessed U2OS cells treated with PMOs (p53-A and p53-B) +/−cisplatin+/−Go6976.

[2] = tested on: U2OS cells (osteosarcoma); assay: U2OS cells treated with PMO, Dox followed by Go6976: cell cycle and caspase 3 assay (FIG. 4); assay type: cell-based; conditions: PMO 3 uM 2 h, Dox 200 ng/ml 24 h, +/- Go6976 100 nM 24 h
Protocol: FIG. 4 is a graph showing the results obtained with U2OS cells treated with PMO (3 uM, 2 h), Dox (200 ng/ml, 24 h) followed by Go6976 (100 nM, 24 h).
as §1

clusterin = conditions: cited from earlier work

| Compound | enhancement of drug sensitivity in the caspase 3 assay [2] [fold] | enhancement of sensitivity to cisplatin [1] | other results |
| --- | --- | --- | --- |
| Cn1c2ccccc2c2c3c(c4c5ccccc5n(CCC#N)c4c21)CNC3=O [Go6976] | – | – | effect of Go6976 on the PMO enhancement of cisplatin sensitivity ([1]; Cis 5 uM 24 h followed by Go6976 100 nM 24 h): potentiates this enhancement |
| PMO A: p53 morpholino (PMO) with sequence corresponding to Seq Id 136 (NU(4)p53); (RX)8B CPP used in in vitro testing (CCATGGCAGTGACCCGGAAGGC; all phosphorodiamidate morpholino (PMO); (RX)8B cell-penetrating peptide conjugated, position not given here) | 3 | about 3 fold | – |
| PMO B: p53 morpholino (PMO) with sequence corresponding to Seq Id 140 (NU(7)p53); (RX)8B CPP used in in vitro testing (GCATCAAATCATCCATTGCTTG; all phosphorodiamidate morpholino (PMO); (RX)8B cell-penetrating peptide conjugated, position not given here) | 3 | about 3 fold | – |
| SEQ ID NO: 3: clusterin antisense oligo 5′-CAGCAGCAGAGTC TTCATCAT-3′, all phosphorothioate, terminal four nucleosides each end 2′-O-methyoxyethyl (CAGCAGCAGAGTCTTCATCAT; sugars from the 5' end e4 d13 e4, all phosphorothioate, methylation of C not given here) | – | – | sensitization of cancer cells to radiation and chemotherapeutic agents (clusterin; cancer cells including prostate cancer cells): modestly sensitize some cancer cells; suppressive activity on clusterin expression (clusterin): relatively poor suppressive activity; effect on induction of apoptosis (clusterin; some cancer cells, including those deficient in p21 (WAF-1) expression): can inhibit the induction of apoptosis in some cancer cells |
